In brackets after ≈: the same amount, converted by molar mass. Like-named read-outs stand apart in the source and are kept apart here.
Legend:
H1N1 A/PR/8/34 (PR8) = experiment: microbe, parasite or virus in culture; assay type: cell-based, influenza A virus; details: for EC50 / EC90: Influenza A virus; for EC90: read-out: Virus Yield EC90; for antiviral activity against PR8, overall rating: PR8 influenza A virus, Table 1
MDCK cells = experiment: Toxicity / cell viability by MTT in uninfected MDCK cells; assay type: cell-based, canine; details: MDCK cells, MTT
Protocol: (§1) Cell culture, treatment and transfection-Madin-Darby canine kidney (MDCK) cells, and human A549 alveolar type II-like epithelial, Jurkat Tlymphoblastoid and U397 monocytic leukemia cells were grown at 37° C. in a 5% CO2 atmosphere in RPMI 1640 (Invitrogen), supplemented with 10% fetal calf serum (FCS), 2 mM glutamine and antibiotics. Test compounds were added immediately after 1-hour adsorption period, and kept in the culture medium for the entire time of the experiment, unless differently specified. […] Cell viability was determined by the 3-(4,5-dimethylthiazol-2-yl)-2,5-diphenyltetrazolium bromide (MTT) to MTT formazan conversion assay (Sigma-Aldrich) as described previously. Microscopical examination of mock-infected or virus-infected cells was performed using a Leica DM-IL microscope and images were captured on a Leica DC 300 camera using Leica Image-Manager500 software.

[1] = test system: H1N1 A/PR/8/34 (PR8) virus; experiment: microbe, parasite or virus in culture; assay type: cell-based, influenza A virus; details: oseltamivir alone at test concentrations up to 1
[2] = Toxicity / cell viability by MTT in uninfected MDCK cells; assay type: cell-based, canine; details: dog, uninfected MDCK cells; uninfected cells
Protocol: as §1

[3] = target: viral hemagglutinin (HA0) (Influenza A virus, UniProt P03452); assay type: cell-based
Sequence of viral hemagglutinin (HA0) (P03452 18-565 limits assumed): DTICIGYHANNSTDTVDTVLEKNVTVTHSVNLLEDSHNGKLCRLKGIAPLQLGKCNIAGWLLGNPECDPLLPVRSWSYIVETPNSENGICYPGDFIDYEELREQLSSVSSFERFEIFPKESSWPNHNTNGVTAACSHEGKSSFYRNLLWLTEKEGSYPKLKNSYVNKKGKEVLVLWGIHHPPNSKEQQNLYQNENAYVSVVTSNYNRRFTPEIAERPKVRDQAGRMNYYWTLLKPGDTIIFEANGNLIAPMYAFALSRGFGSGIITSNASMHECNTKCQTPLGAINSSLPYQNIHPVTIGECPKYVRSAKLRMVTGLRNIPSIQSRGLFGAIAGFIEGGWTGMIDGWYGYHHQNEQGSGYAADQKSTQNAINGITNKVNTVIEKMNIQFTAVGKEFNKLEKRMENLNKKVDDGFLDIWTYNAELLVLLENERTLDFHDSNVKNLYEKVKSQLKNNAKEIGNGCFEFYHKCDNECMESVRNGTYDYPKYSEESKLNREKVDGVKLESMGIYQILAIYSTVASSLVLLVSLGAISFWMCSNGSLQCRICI

[4] = PR8, MDCK cells, read-out: Virus Yield EC50

Compound | EC50 (H1N1 A/PR/8/34 (PR8); [4]) [µg/mL] | EC90 (H1N1 A/PR/8/34 (PR8); PR8, MDCK cells) [µg/mL] | Toxicity LD50 (MTT) (MDCK cells) [µg/mL] | also measured
CC(=O)Oc1ccc(C(=O)Nc2ncc(S(C)(=O)=O)s2)cc1 [Compound 63] | 10 (≈ 29.4 µM) | > 50 | >50 | 
CC(=O)Oc1ccccc1C(=O)Nc1ncc(S(C)(=O)=O)s1 [Compound 52] | 30 (≈ 88.1 µM) | > 50 | >50 | 
O=C(Oc1ccccc1C(=O)Nc1ncc([N+](=O)[O-])s1)c1ccccc1 [Compound 17] | 3 (≈ 8.12 µM) | 9 (≈ 24.4 µM) | >50 | 
CS(=O)(=O)c1cnc(NC(=O)c2ccc(O)cc2)s1 [Compound 64] | > 50 | > 50 | >50 | 
CCOC(=O)C1=C[C@@H](OC(CC)CC)[C@H](NC(C)=O)[C@@H](N)C1 [oseltamivir, reference compound] |  |  |  | reduction (inhibition) of virus yield [1]: did not observe reduction
CC(=O)Oc1ccccc1C(=O)Nc1nc(S(=O)(=O)C2CCCCC2)cs1 [Compound 38] | 25 (≈ 61.2 µM) | > 50 | >50 | 
CC(C)S(=O)(=O)c1csc(NC(=O)c2ccccc2O)n1 [Compound 37] | 0.6 (≈ 1.84 µM) | 15 (≈ 46 µM) | >50 | antiviral activity against PR8, overall rating (H1N1 A/PR/8/34 (PR8)): potent and selective
CSc1csc(NC(=O)c2ccc(OC(C)=O)cc2)n1 [Compound 33] | > 50 | > 50 | >50 | 
CC(=O)Oc1cccc(C(=O)Nc2nc(S(C)(=O)=O)cs2)c1 [Compound 31] | > 50 | > 50 | >50 | 
CC(=O)Oc1ccccc1C(=O)Nc1nc([S+](C)[O-])cs1 (centres unmarked) [Compound 29] | 10 (≈ 30.8 µM) | > 50 | >50 | 
CS(=O)(=O)c1csc(NC(=O)c2ccc(O)cc2)n1 [Compound 35] | > 50 | > 50 | >50 | 
CS(=O)(=O)c1csc(NC(=O)c2ccccc2O)n1 [Compound 28] | 0.1 (≈ 0.335 µM) | 0.7 (≈ 2.35 µM) | >50 | EC50 (H1N1 A/PR/8/34 (PR8); MDCK, 24 h, read-out: EC50, inhibition of virus replication): 0.1 µg/mL (≈ 0.335 µM); potency relative to NTZ and TIZ (H1N1 A/PR/8/34 (PR8); PR8, MDCK cells): 10 times; antiviral activity against PR8, overall rating (H1N1 A/PR/8/34 (PR8)): potent and selective; CC50 [2]: > 50 µg/mL
CC(=O)Oc1ccccc1C(=O)Nc1ncc(S(=O)(=O)c2ccc([N+](=O)[O-])cc2)s1 [Compound 51] | 3.5 (≈ 7.82 µM) | 9 (≈ 20.1 µM) | 30 | 
tunicamycin [TM, reference compound] |  |  |  | HA0 glycosylation (glucosamine, mannose incorporation) [3]: completely prevented HA0 glycosylation; intracellular HA0 levels / accumulation [3]: caused a decrease in HA0 accumulation
CC(=O)Oc1ccc(C(=O)Nc2nc(S(C)(=O)=O)cs2)cc1 [Compound 34] | > 50 | > 50 | >50 | 
